Molecular target: GABA-A receptor; anion channel
Assay: Binding affinity to Rattus norvegicus (rat) brain GABA-A receptor benzodiazepine site

Row | pIC50 | Compound
1 | 5.14 | CNc1nc2c(N(C)C)ncnc2n1Cc1cccc(C)c1

Molecular target: GABA-A receptor; anion channel
Assay: Displacement of [3H]flunitrazepam from Rattus norvegicus (rat) brain GABA-A receptor benzodiazepine site

Row | pIC50 | Compound
2 | 7.328 | CCCc1c(OC)nc2nc(C(=O)c3ccccc3)cn2c1CC
3 | 7.252 | CCc1c(OC)nc2nc(C(=O)c3ccccc3)cn2c1CC

Molecular target: not listed separately
Assay: Binding affinity to GABA-A receptor benzodiazepine site (unknown origin)
Parameters: species or system Homo sapiens

Row | Compound | pIC50
4 | CCOC(=O)c1ncc2[nH]c3ccc(OCc4ccccc4)cc3c2c1COC | 9
5 | S=C=Nc1cc2c(cn1)[nH]c1ccccc12 | 8.1
6 | CCOC(=O)c1cc2c(cn1)[nH]c1ccccc12 | 8.3
7 | CCCC(=O)c1cc2c(cn1)[nH]c1ccccc12 | 7.64
8 | COC(=O)c1cc2c(cn1)[nH]c1ccccc12 [BETA-CCM] | 8.3
9 | Cc1nccc2c1[nH]c1ccccc12 [HARMAN] | 4.91
10 | c1ccc2c(c1)[nH]c1cnccc12 [NORHARMANE] | 5.79

Further lines, results first:

Row | pIC50 | Compound
11 | 4.6 | Nc1cc2c(cn1)[nH]c1ccccc12
12 | 8 | CC(=O)C(=O)c1cc2c(cn1)[nH]c1ccccc12
13 | 5.4 | Oc1cc2c(cn1)[nH]c1ccccc12
14 | 5.12 | CCc1nc(C(=O)OC)cc2c1[nH]c1ccccc12
15 | 6.12 | CC(C)(C)COC(=O)c1cc2c(cn1)[nH]c1ccccc12
16 | 6.29 | CC(C)Oc1cc2c(cn1)[nH]c1ccccc12
17 | 7.01 | CCCCOc1cc2c(cn1)[nH]c1ccccc12
18 | 6.9 | O=[N+]([O-])c1cc2c(cn1)[nH]c1ccccc12
19 | 6.91 | COc1cc2c(cn1)[nH]c1ccccc12
20 | 7.35 | Clc1cc2c(cn1)[nH]c1ccccc12
21 | 7.62 | CCOc1cc2c(cn1)[nH]c1ccccc12
22 | 7.96 | CCCOc1cc2c(cn1)[nH]c1ccccc12
23 | 6.64 | CCCCc1cc2c(cn1)[nH]c1ccccc12

Reference: ChEMBL document CHEMBL3046899, “2D-QSAR of non-benzodiazepines to benzodiazepines receptor (BZR)” (Med Chem Res, 2009)
